Consider three compounds from patent publication US10894777B2, “TG2 inhibitor piperazine compounds and uses thereof” (UNIVERSITY OF OTTAWA, priority 2016, dated 2021).

For one data set, the system named is HaCaT cells. Description: Spheroid formation assay, HaCaT cells. As to conditions: 20 μM, 48 h. In kind it is cell-based, human. As to the method: (§1) Spheroid formation assay. Spheroid formation assays were as reported previously (Adhikary, G. et al., PLoS One 8:e84324, 2013), except that the spheroids were grown in 6-well ultralow attachment Costar cluster dishes (Corning).

The test system of data set [1] is TG2 fusion protein mCer-TG2-YFP. Put plainly: Fluorescence lifetime imaging (FLIM) of TG2 conformation, HaCaT cells. In kind it is cell-based, human. The conditions noted are these: 5 μM. The protocol: HaCaT cells were electroporated with mCer-TG2 or […] and then treated with 0 or 5 μM of the indicated inhibitor and fluorescent lifetime was monitored. […] HaCaT cells were preloaded with fluorescein cadaverine, treated with the indicated inhibitor and then challenged with calcium ionophore, washed and assayed for FC incorporation. […] The beads were then washed, boiled in Laemmli buffer and electrophoresed for immunoblot detection of TG2. Cell equivalent quantities of total and bound samples were electrophoresed to facilitate comparison of GTP bound versus total. […] Experiments were performed as described in FIGS. 31 (F) and (G).
Fluorescence lifetime imaging. Fluorescence lifetime images were acquired using FLIM system (Alba 5 from ISS). […] Emission was observed through bandpass filter 480/35 nm (Chroma Technology) and detected by a photomultiplier H7422-40 (Hamamatsu). FLIM data were acquired using time-domain modality (SPC-830 TCSPC module from Becker and Hickl GmbH). […] To account for intensity heterogeneity within single intensity images, two to five consecutive scans were acquired and summed to build FLIM intensity image for lifetime analysis. […] FLIM data were analyzed using VistaVision Suite software (Vista v.213 from ISS). Lifetime images were generated by fitting data using single exponential intensity decay model. Intensity threshold for lifetime analysis was set of at least 3-fold above the intensity of dim cells and fitting procedure was performed for binned pixels at level of 3 (7×7 pixels). Lifetime distribution within image is represented with histogram showing pixel frequency of specific lifetime. The average lifetime values with standard deviations were calculated based on all processed pixels in lifetime image. FRET values were calculated according to the formula ET=1−(τDA/τD), where τD is the lifetime of donor (mCer-TG2) and τDA is the lifetime of donor-acceptor pair (mCer-TG2—YFP).

For a further data set, the system named is SCC-13 cells. Description: Spheroid formation / survival assay, SCC-13 cells (ECS cells). It counts as cell-based, human. As to conditions: for spheroid formation (cancer stem cell survival): 8 d spheroids, 20 μM, 48 h. The protocol: Spheroid formation assay. Cells, maintained as monolayer cultures in growth medium consisting of DMEM (Invitrogen, Frederick, Md.) supplemented with 4.5 mg/ml D-glucose, […] L-glutamine, […] sodium pyruvate, and 5% fetal calf serum, were harvested, collected by centrifugation, and resuspended in spheroid medium comprising DMEM/F12 (1:1) (DMT-10-090-CV, Mediatech Inc., Manassas, Va.) supplemented with 2% B27 serum-free supplement (17504-044, Invitrogen, Frederick, Md.), 20 ng/ml EGF (E4269, Sigma, St. Louis, Mo.), 0.4% bovine serum albumin (B4287, Sigma) and 4 μg/ml insulin (19278 Sigma, St. Louis, Mo.). The cells (40,000) were plated in 9.6 cm^2 wells in Costar six well ultra-low attachment cluster dishes (4371, Corning, Tewksbury, Mass.). Spheroid size and number was monitored with time in culture as previously described (Adhikary, G. et al., PLoS One 8:e84324, 2013).
Spheroid formation assay. Spheroid formation assays were exactly as outlined previously (Adhikary, G. et al., PLoS ONE 8:e84324, 2013), except that the spheroids were grown in six well ultra-low attachment Costar cluster dishes (4371, Corning, Tewksbury, Mass.).
as §1

The test system of data set [2] is rat primary cortical neurons. Put plainly: Neuronal viability by resazurin assay. In kind it is cell-based. As to conditions: 24 h. As to the method:
DMSO was used as a control. At the end of the treatment, neuronal viability was measured by resazurin assay. Results are shown as a percent of DMSO control (±SEM) (N=3).

In data set [3] the test system is SCC-13, HaCaT, A431, TU159, HNSCC3 cells. Description: Spheroid formation, matrigel invasion and migration assays in five cell lines (Example 11). It counts as cell-based, human. The conditions noted are these: FIGS. 38-42. As to the method:
SCC13 cells were grown for one week as monolayer in spheroid media; cells were harvested with 0.25% trypsin and plated with 2 mL of spheroid media at 15,000 cells per well in a 6-well dish. Cells were counted on day 0 and then treated with the indicated concentration of the indicated compound. Control was 0.1% DMSO. Cells were counted using a cell counter, 2 wells per treatment on each day. Values shown are mean±SEM, n=1.
HaCaT cells were grown for one week as a monolayer in spheroid media. Cells were harvested with 0.25% trypsin and plated with 2 mL of spheroid media at 15,000 cells per well in a 6-well dish. Cells were counted on day 0 and then treated with the indicated concentration of the indicated compound. Control was 0.1% DMSO. Cells were counted using a cell counter, 2 wells per treatment on each day. Values shown are mean±SEM, n=1.
A431 cells were grown for one week as a monolayer in spheroid media. Cells were harvested with 0.25% trypsin and plated with 2 mL of spheroid media at 15,000 cells per well in a 6-well dish. Cells were counted on day 0 and then treated with the indicated concentration of the indicated compound. Control was 0.1% DMSO. Cells were counted using a cell counter, 2 wells per treatment on each day. Values shown are mean±SEM, n=1.
TU159 cells were harvested with 0.25% trypsin and plated with 2 mL of spheroid media at 40,000 cells per well in a 6 well low-attachment plate. The cells were grown as spheroids for 8 days. On day 8 the spheroids were treated with the indicated concentration of the indicated compound. Control was 0.1% DMSO. The same 2 wells per treatment were counted on each day. Values shown are mean±SEM, n=1.
HNSCC3 cells were grown for one week as a monolayer in spheroid media. Cells were harvested with 0.25% trypsin and plated with 2 mL of spheroid media at 15,000 cells per well in a 6-well dish. Cells were counted on day 0 and then treated with the indicated concentration of the indicated compound. Control was 0.1% DMSO. The same 2 wells per treatment were counted on each day. Values shown are mean±SEM, n=1. […]

The structures appear in SMILES notation.

`C=CC(=O)NCCCC[C@H](NC(=O)OCc1ccccc1)C(=O)NCCOCCOCCNS(=O)(=O)c1cccc2c(N(C)C)cccc12` [NC9]: the “ECS cell spheroid formation” value in the data set with HaCaT cells was “suppressed”. Moreover, in data set [1], the “fluorescence lifetime / TG2 structure” value is “increased fluorescence lifetime”. Besides, the “spheroid number, formation from single cells” value in the data set on SCC-13 cells (10 or 20 μM single addition, 0-14 days, after day eight) is “selectively declined”. In addition, the “spheroid formation (cancer stem cell survival)” value with SCC-13 cells was “inhibited spheroid formation”. In the data set with SCC-13 cells (spheroids grown for 8 days, then treated), the “spheroid number, pre-formed spheroids” value is “reduced spheroid number”. In data set [2], the “neuronal viability / tolerability” value is listed as “well tolerated up to 10 μM concentration”. In addition, the “spheroid formation, matrigel invasion and migration” value in data set [3] is “inhibit spheroid formation, matrigel invasion and migration”.

As to `C=CC(=O)NCCCC[C@H](NC(=O)OCc1ccccc1)C(=O)N1CCN(S(=O)(=O)c2cccc3c(N(C)C)cccc23)CC1` [VA4, (S)-benzyl(6-acrylamido-1-(4-((5-(dimethylamino)naphthalen-1-yl)sulfonyl)piperazin-1-yl)-1-oxohexan-2-yl)carbamate], the “ECS cell spheroid formation” value in the data set with HaCaT cells was “suppressed”. The “fluorescence lifetime / TG2 structure” value in data set [1] is “increased fluorescence lifetime”. In addition, in the data set with SCC-13 cells, the “spheroid formation (cancer stem cell survival)” value is “inhibited spheroid formation”. For the same compound, the “neuronal viability / tolerability” value in data set [2] is recorded as “well tolerated up to 10 μM concentration”. Besides, in data set [3], the “spheroid formation, matrigel invasion and migration” value is “inhibit spheroid formation, matrigel invasion and migration”.

With `C=CC(=O)NCCCC[C@H](NC(=O)OCc1ccccc1)C(=O)N1CCN(C(=O)c2cc3ccc(O)cc3oc2=O)CC1` [VA5, (S)-Benzyl(6-acrylamido-1-(4-(7-hydroxy-2-oxo-2H-chromene-3-carbonyl)piperazin-1-yl)-1-oxohexan-2-yl)carbamate], the “ECS cell spheroid formation” value in the data set on HaCaT cells is “suppressed”. The “fluorescence lifetime / TG2 structure” value in data set [1] was “increased fluorescence lifetime”. For the same compound, in the data set on SCC-13 cells, the “spheroid formation (cancer stem cell survival)” value was “inhibited spheroid formation”. Also, the “neuronal viability / tolerability” value in data set [2] is on record as “well tolerated up to 10 μM concentration”. Also, in data set [3], the “spheroid formation, matrigel invasion and migration” value was “inhibit spheroid formation, matrigel invasion and migration”.
